The record followed here is patent publication US11992012B2, “Diaminotriazine compounds” (BASF SE, priority 2018, dated 2024).

Test in all cases: greenhouse pre-emergence herbicidal test
Holding throughout (type): in vivo
Common to all, as to conditions: 250 g/ha, scale 0 to 100

The subject of one test is Abutilon theophrasti. The gist of the method:
(§1)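 Compounds suspended or emulsified in water were sprayed onto loamy sand (about 3.0% humus) right after sowing; pots were hooded until rooting. Damage was scored on a 0–100 scale (100 = no emergence or complete aerial destruction, 0 = normal growth) after 2 to 4 weeks.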

The next test has as its system Alopercurus myosuroides. In a few lines:
(§2)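 Seeds sown in loamy sand (~3.0% humus); compounds suspended or emulsified in water, sprayed directly after sowing, pots covered until rooting. Kept at 10-25° C. or 20-35° C. by species for 2 to 4 weeks. Damage scored visually 0-100 (100 = no emergence or complete aerial destruction).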

In a further test the test system is Echinocloa crus-galli. In a few lines: as §2
For another test, the system named is Setaria faberi. In a few lines:
as §1

The next test concerns Amaranthus retroflexus. The gist of the method:
as §2

Take `COC(C)(C)c1nc(N)nc(Nc2c(F)c(F)cc(F)c2OCc2ccc(C)cc2)n1` [Example 228]: the results for the herbicidal activity with Abutilon theophrasti, in the test on Alopercurus myosuroides and with Echinocloa crus-galli were 100%, 100% and 90%, respectively.
In the case of `Nc1nc(Nc2c(F)c(F)cc(F)c2OCc2ccccc2)nc(C2(F)CCCC2)n1` [Example 199], the herbicidal activity with Abutilon theophrasti, in the test with Alopercurus myosuroides and in the test with Echinocloa crus-galli was 100% each time.
For the molecule `Cc1ccccc1COc1c(F)cc(F)c(F)c1Nc1nc(N)nc(C(C)F)n1` (stereo not shown) [Example 229], the herbicidal activity in the test on Abutilon theophrasti, in the test on Alopercurus myosuroides and in the test on Echinocloa crus-galli was 100% in each case.
On to `Cc1ccccc1COc1cccc(F)c1Nc1nc(N)nc(C(C)(C)F)n1` [Example 30], for which the herbicidal activity in the test with Abutilon theophrasti, in the test with Setaria faberi, in the test on Echinocloa crus-galli and with Amaranthus retroflexus was 100% each time.
As to `CC(C)(F)c1nc(N)nc(Nc2c(Cl)cccc2OCc2ccccc2)n1` [Example 85], the values for the herbicidal activity with Abutilon theophrasti, with Setaria faberi and with Alopercurus myosuroides were 90%, 70% and 70%, respectively.
Regarding `CC(C)(F)c1nc(N)nc(Nc2c(F)c(F)cc(F)c2OCc2c(F)cccc2F)n1` [Example 165], the herbicidal activity in the test with Abutilon theophrasti, with Alopercurus myosuroides and with Echinocloa crus-galli was 100% throughout.
With `CC(C)(F)c1nc(N)nc(Nc2c(F)ccc(F)c2OCc2c(F)cccc2F)n1` [Example 167], the herbicidal activity in the test with Abutilon theophrasti, in the test with Setaria faberi and in the test with Alopercurus myosuroides was 100% throughout.
Turning to `Cc1ccc(COc2c(F)cc(F)c(F)c2Nc2nc(N)nc(C(C)F)n2)cc1` (stereo not shown) [Example 231], the herbicidal activity in the test with Abutilon theophrasti, in the test with Alopercurus myosuroides and in the test with Echinocloa crus-galli was 98% each time.
Regarding `COc1cccc(COc2c(F)ccc(F)c2Nc2nc(N)nc(C(C)(C)F)n2)c1` [Example 139], the herbicidal activity in the test on Abutilon theophrasti, in the test with Setaria faberi, in the test with Echinocloa crus-galli and with Amaranthus retroflexus was 100% in each case.
Turning to `CCC(F)c1nc(N)nc(Nc2c(F)cccc2OCc2ccccc2)n1` (stereo not shown) [Example 35], the herbicidal activity in the test on Abutilon theophrasti, in the test with Setaria faberi, in the test on Echinocloa crus-galli and with Amaranthus retroflexus was 100% each time.
In the case of `COC(C)(C)c1nc(N)nc(Nc2c(F)c(F)cc(F)c2OCc2ccccc2C)n1` [Example 226], the herbicidal activity with Abutilon theophrasti is listed as 90%; in the test on Alopercurus myosuroides it was 100%; in the test on Echinocloa crus-galli it was 100%.
Turning to `CC(C)(F)c1nc(N)nc(Nc2c(F)cccc2OCc2ccsc2)n1` [Example 22], the herbicidal activity in the test with Abutilon theophrasti, in the test on Setaria faberi, with Echinocloa crus-galli and with Amaranthus retroflexus was 100% each time.
With `CC(C)(F)c1nc(N)nc(Nc2c(F)c(F)cc(Cl)c2OCc2ccccc2)n1` [Example 234], the herbicidal activity in the test on Abutilon theophrasti came to 100%; with Alopercurus myosuroides, 90%; in the test on Echinocloa crus-galli, 100%.
Turning to `CC(C)CC(F)c1nc(N)nc(Nc2c(F)cccc2OCc2ccccc2)n1` (stereo not shown) [Example 233], the figures for the herbicidal activity in the test on Abutilon theophrasti, with Alopercurus myosuroides and with Echinocloa crus-galli were 75%, 80% and 95%, respectively.
With `CC(C)(F)c1nc(N)nc(Nc2c(F)c(F)c(F)c(F)c2OCc2ccccc2)n1` [Example 236], the values for the herbicidal activity in the test on Abutilon theophrasti, in the test on Alopercurus myosuroides and in the test with Echinocloa crus-galli were 100%, 95% and 100%, respectively.
As for `CC(C)(F)c1nc(N)nc(Nc2c(F)cc(F)c(F)c2OCc2ccccc2)n1` [Example 188], the herbicidal activity with Abutilon theophrasti, with Alopercurus myosuroides and in the test on Echinocloa crus-galli was 100% each time.
